In patent US20210251226A1, “METHOD AND COMPOSITION FOR INHIBITING THE GROWTH OF PSEUDOMONAS SYRINGAE ON A PLANT MATERIAL, AND KIT FOR TREATING THE SAME” (City University of Hong Kong, priority 2020, published 2021):

Tests used:
P. syringae [1] = details: conventional agent, comparison; cited from earlier work
hrpL = experiment: hrpL-lux activity (hrpL expression) in wild-type P. syringae; type: cell-based; details: 1 mM of each salt
Description: To study the inhibitory effect of different acetate salts to inhibit P. syringae, 1 mM of 12 acetate salts was tested on the expression of hrpL, namely on hrpL-lux activities, in the wild-type P. syringae. The 12 acetate salts included acetate salts of lithium (Li), potassium (K), magnesium (Mg), sodium (Na), calcium (Ca), manganese (Mn), aluminium (Al), nickel (Ni), acetic acid (denoted as HAc), copper (Cu), ammonium (NH4), and iron (Fe).

[2] = test system: wild-type P. syringae pv. tomato; details: 6 day post inoculation
Description: To study the effect of concentration of NaAc on inhibiting growth of P. syringae, 2×10^4 CFU/ml of wild-type P. syringae pv. tomato bacteria were injected into the tomato leaves. Then, the inoculated leaves were sprayed with water and 0.1-100 mM NaAc. Three 1 cm^2 leaf disks at 6 day post inoculation were homogenated and diluted in water to count bacterial CFUs.

P. syringae [3] = experiment: Toxicity to P. syringae liquid culture (CFU count); details: liquid culture treated 2 hours
Description: To study whether the optimized NaAc recipe is toxic to P. syringae, a P. syringae liquid culture was treated with 0.1 mM FeAc, 100 mM NaAc, and the optimized recipe (1 mM NaAc and 0.1 mM FeAc) respectively for 2 hours. The treated and control (untreated) cultures were then diluted for counting bacterial CFUs.

wild-type P. syringae [4] = test system: wild-type P. syringae
bean leaf = experiment: Toxicity to host plant leaves after injection
Description: Furthermore, to study whether the optimized NaAc recipe is toxic to a host plant, aqueous solutions of 0.1 mM FeAc, 100 mM NaAc, and the optimized recipe (1 mM NaAc and 0.1 mM FeAc) were respectively injected into tomato and bean leaves and inoculated for 6 days.

wild-type P. syringae [5] = details: 10 mM NaAc, 6 days after inoculation, 2×10^4 CFU/ml

Compound: O=S(=O)([O-])[O-].[Cu+2] [copper sulfate]
- minimum inhibitory concentration (MIC) (P. syringae [1]): 3000 µM

Compound: [H]/N=C(/N)N[C@H]1[C@H](O)[C@@H](O)[C@H](O[C@@H]2O[C@@H](C)[C@](O)(C=O)[C@H]2O[C@@H]2O[C@@H](CO)[C@H](O)[C@@H](O)[C@@H]2NC)[C@@H](N/C(N)=N\[H])[C@@H]1O [streptomycin]
- minimum inhibitory concentration (MIC) (P. syringae [1]): 1000 µg/mL

Compound: CC(=O)[O-].CC(=O)[O-].[Fe+2] [iron acetate]
- inhibitory effect on hrpL-lux activities, rank among 12 acetate salts (hrpL): best inhibitory effect

Compound: CC(=O)[O-].[Na+] [NaAc, sodium acetate]
- difference in bacterial CFU between water control and NaAc spray ([2]; tomato leaf, 0.1-100 mM spray, P<0.05): significant
- best concentration for reducing bacterial growth ([2]; tomato, of concentrations from 0.1 mM to 100 mM): 100 mM
- toxicity to P. syringae (P. syringae [3]): not toxic
- bacterial pathogenicity (disease symptoms) on tomato leaf (wild-type P. syringae [4]; 10 mM NaAc, 6 days after inoculation, 2×10^4 CFU/ml): significantly reduced bacterial pathogenicity
- concentration removing infection symptom (wild-type P. syringae [4]; host plant not named at this place): 10 mM
- toxicity to host plant leaf (bean leaf; injected into leaf, 6 days): not toxic
- toxicity or resistance on plant (bean leaf; plant): no toxicity or resistance on plant
- bacterial pathogenicity (disease symptoms) on bean leaf (wild-type P. syringae [5]): significantly reduced bacterial pathogenicity
